The values that follow come from patent US9045393B2, “Derivatives of 3.5-seco-4-norcholestane and use thereof” (TROPHOS, priority 2004, dated 2015).

One series deals with rat motoneurons. The series can be described thus: in vitro model of trophic deprivation of rat motoneurons (survival, calcein fluorescence). Format: cell-based. The note with it: 3 days in basal medium, compared with medium supplemented with neurotrophic factors, ratio greater than 0 = positive effect. The text has this:
Useful reference may be made to the WO 0142784 Patent Application of the applicant on the cultivation of spinal cord motoneurons.
The spinal cord of rat E14 embryos is dissected and the ventral portion is dissociated by trituration after trypsination. The motoneurons are separated from the other spinal cells by a known method (Camu et al., 1993, Purification of spinal motoneurons from chicken and rat embryos by immunopanning. in “Immunoselection Strategies for Neural cell culture”, Neuroprotocols: A companion to Methods in Neurosciences 2, 191-199; Henderson et al., 1993. Neutrophins promote motor neuron survival and are present in embryonic limb bud. Nature 363 (6426): 266-70). The cells are centrifuged on a density gradient. Motoneurons are enriched in the fraction of large cells (the less dense cells). The cells of this fraction are incubated with an anti-p75 antibody, a surface antigen present on motoneurons. Secondary antibodies coupled with magnetic beads are added and the mixture of cells is passed through a column in a magnet (Arce et al., 1999). Only the motoneurons are retained: their purity is of the order of 90%.
The motoneurons are sown with low density in culture wells on a substrate of polyornithine-laminin in a neurobasal medium supplemented according to Raoul et al., 1999, Programmed cell death of embryonic motoneurons triggered through the Fas death receptor. J. Cell. Biol. 147(5): 1049-62. Negative controls (absence of trophic factors) and positive controls (in the presence of BDNF (Brain-Derived Neurotrophic Factor) at 1 ng/mL, GDNF (Glial-Derived Neurotrophic Factor) at 1 ng/mL, and CNTF (Ciliary Neurotrophic Factor) at 10 ng/mL, marketed by the US company PEPROTECH, Inc. and the Sigma-Aldrich company), are included in each series.
The compounds to be tested are added 60 minutes after sowing and the cultures are maintained at 37° C. under 5% CO2 for 3 days.
The motoneurons have a spontaneous tendency of dying in the absence of neurotrophic factors (Pettmann and Henderson, 1998, Neuronal cell death. Neuron 20(4): 633-47). After 3 days, survival is evaluated by measuring fluorescence after incubating the cells in the presence of calcein which becomes fluorescent in living cells.
After 3 days in culture at 37° C., under 5% CO2 and in saturating humidity, up to 50% of the initially sown motoneurons survive in the medium supplemented with neurotrophic factors, while less than 15% of the motoneurons survive in a basal medium alone.
The activity of the compounds to be tested was evaluated by their capability of preventing death of motoneurons when they are added to the neurobasal medium as compared with survival of motoneurons in a medium supplemented with neurotrophic factors.
This survival rate is expressed by a number, the ratio. If the ratio is greater than 0, the effect of the compounds is positive on the survival of the motoneurons.

In series [1] the test system is motoneurons of the facial nucleus. The series can be described thus: axotomy of the facial nerve in newborn rats, count of motoneurons of the facial nucleus. Format: in vivo, rat. To be noted: axotomized newborn rats, treated orally, seven days after section.
Series [2] can be described thus: Toxicological study in mice. The series is classed as in vivo. The note with it: intra-peritoneal route, 30 mg/kg/day, daily administration up to 14 days.

With “3,5-seco-4-nor-cholestan-5-one-3-methyl ketone [Compound 13]”, the “Ratio (survival rate of the motoneurons)” value with rat motoneurons (concentration 3 μM) is reported as 0.7. Regarding `CC(C)CCC[C@@H](C)[C@H]1CC[C@H]2[C@@H]3CC/C(=N\O)[C@](C)(CCCO)[C@H]3CC[C@]12C` [Compound 11, 3,5-seco-4-nor-cholestan-5-one oxime-3-ol], in the series with rat motoneurons (concentration 3 μM), the “Ratio (survival rate of the motoneurons)” value is listed as 0.8. For the same compound, in series [1] (dose between 3 and 30 mg/kg, as compared with non-sectioned nerve), the “increase of survival of the motoneurons of the facial nucleus” value (from here on “increase”) is given as “up to 40%”. For the same compound, the toxicity result in series [2] is recorded as “did not show any significant toxicity”. With `CNCCCC1(C)C(=NO)CCC2C1CCC1(C)C(C(C)CCCC(C)C)CCC21` (stereo not shown) [Compound 5, 3,5-seco-4-nor-cholestan-5-one oxime-3-methyl-amine], in the series on rat motoneurons (concentration 3 μM), the “Ratio (survival rate of the motoneurons)” value is recorded as 0.3. Same read-out and setting: under `CC(C)CCCC(C)C1CCC2C3CCC(=NO)C(C)(CCC(=O)O)C3CCC12C` (stereo not shown) [Compound 8, 3,5-seco-4-nor-cholestan-5-one oxime-3-oic acid] stands 0.4; under `CC(C)CCCC(C)C1CCC2C3CCC(=O)C(C)(CCC(C)(C)O)C3CCC12C` (stereo not shown) [Compound 2, 3,5-seco-4-nor-cholestan-5-one-3-dimethyl alcohol], 0.5. “3,5-seco-4-nor-cholestan-5-one oxime-3-methyl alcohol [Compound 4]”: the “Ratio (survival rate of the motoneurons)” value with rat motoneurons (concentration 3 μM) is 0.5. Besides, the “increase” value in series [1] (dose of 30 mg/kg) is “up to 30%”. In the case of `CC(C)CCCC(C)C1CCC2C3CCC(=NO)C(C)(CCC=NO)C3CCC12C` (stereo not shown) [Compound 12, 3,5-seco-4-nor-cholestan-5-one oxime-3-one oxime], in the series on rat motoneurons (concentration 3 μM), the “Ratio (survival rate of the motoneurons)” value is 0.7. On the same count and under the same terms, the value for `CNC(=O)CCC1(C)C(=NO)CCC2C1CCC1(C)C(C(C)CCCC(C)C)CCC21` (stereo not shown) [Compound 1, 3,5-seco-4-nor-cholestan-5-one oxime-3-methyl-amide] was 0.4.

`CC(C)CCCC(C)C1CCC2C3CCC(=NO)C(C)(CCC(C)(C)O)C3CCC12C` (stereo not shown) [Compound 3, 3,5-seco-4-nor-cholestan-5-one oxime-3-dimethyl alcohol]: the “Ratio (survival rate of the motoneurons)” value in the series on rat motoneurons (concentration 3 μM) was 0.7. In series [1] (dose of 10 mg/kg), the “increase” value is on record as “up to 25%”. Besides, the toxicity result in series [2] is given as “did not show any significant toxicity”.

For `CON=C1CC[C@H]2[C@@H]3CC[C@H]([C@H](C)CCCC(C)C)[C@@]3(C)CC[C@@H]2[C@@]1(C)CCCO` [Compound 6, 3,5-seco-4-nor-cholestan-5-one methyloxime-3-ol], the “Ratio (survival rate of the motoneurons)” value in the series on rat motoneurons (concentration 3 μM) is listed as 0.4. On the same count and under the same terms, under `CC(C)CCCC(C)C1CCC2C3CCC(=NOCC(=O)O)C(C)(CCCO)C3CCC12C` (stereo not shown) [Compound 7, 3,5-seco-4-nor-cholestan-5-one carboxymethyl-oxime-3-ol] stands 0.4.

For the compound `CC(C)CCCC(C)C1CCC2C3CCC(=O)C(C)(CCC(=O)O)C3CCC12C` (stereo not shown) [Compound 14, 3,5-seco-4-nor-cholestan-5-one-3-oic acid], the “Ratio (survival rate of the motoneurons)” value in the series on rat motoneurons (concentration 10 μM) was 0.4. As to `CC(C)CCCC(C)C1CCC2C3CCC(=O)C(C)(CCCO)C3CCC12C` (stereo not shown) [Compound 10, 3,5-seco-4-nor-cholestan-5-one-3-ol], the “Ratio (survival rate of the motoneurons)” value in the series on rat motoneurons (concentration 3 μM) is recorded as 0.6. Still for that read-out and setting: under `CC(C)CCCC(C)C1CCC2C3CCC(O)C(C)(CCCO)C3CCC12C` (stereo not shown) [Compound 9, 3,5-seco-4-nor-cholestane-3,5-diol] stands 0.4.
